In one series the test system is writhing. The series is described as follows: writhing test on mice (analgesic effect). Conditions: Mus musculus, po, per os, dosis that reduces the number of writhings by 50% vs control. The format is in vivo. As to the method:
(§1) The ED50 levels were determined graphically on probability paper. In the writhing test, the ED50 is defined to be the dosis of active ingredient that reduces the number of writhings by 50% as compared with a control group. In the adjuvant arthritis test, the effect was judged by observing the inhibition in the secondary lesions, which the animals inflicted to their ears, paws and tails, on the 17th day after the administration of the active substance compositions had started, in comparison with a control group. ED50 is considered the dosis that reduces these lesions by 50% as compared to those of the control group.

Another series relates to adjuvant arthritis. Put plainly: adjuvant arthritis in rats (anti-inflammatory effect). Conditions: Rattus norvegicus, po, 408 h, per os, 50% reduction of secondary lesions on the 17th day vs control. The class given is in vivo. On the procedure: as §1
Series [1] can be described thus: in vivo. The arrangement: species or system male rats of a Sprague-Dawley strain. Conditions: rat, po. On the procedure:
To examine the ulcerogenic activity, the substances to be tested were orally administered to male rats of a Sprague-Dawley strain, that had been kept unfed for 18 hours, and 24 hours after administration, the gastrointestinal tract of the animals was inspected for ulcers.

Series [2] is described as follows: in vivo. Conditions: mouse, po, per os, N.M.R.I. mice, observation time 7 days.
The nature of series [3]: in vivo. Conditions: rat, po, per os, observation time 7 days.
Source text: ^1) Limits of confidence for p = 0.05 in brackets
^2) Sprague-Dawley rats used as test animals

Consider `CCCCC1C(=O)N(c2ccccc2)N(c2ccccc2)C1=O` [Phenylbutazone, phenylbutazone, reference compound], for which the ED50 in the series on writhing is 60 to 100 mg/kg; in the series on adjuvant arthritis, 37 mg/kg. Also, the NOAEL at 24 h in the series “in vivo [1]” is 63 mg/kg.

Regarding `CC(O)=C(C#N)C(=O)Nc1cccc(Cl)c1` [No. 2], the ED50 is approximately 25 mg/kg in the series with writhing and 22 mg/kg in the series on adjuvant arthritis. The LD50 at 168 h turned out to be 585 mg/kg in the series “in vivo [2]” and 445 mg/kg in “in vivo [3]” (female Wistar-Lewis rats). In the series “in vivo [1]”, this compound came in with an NOAEL at 24 h of 200 mg/kg.

With `CC(O)=C(C#N)C(=O)Nc1cccc(C(F)(F)F)c1` [compound 11], the ED50 in the series with writhing was determined as 25 mg/kg; in the series on adjuvant arthritis it was 28 mg/kg. The LD50 at 168 h in “in vivo [2]” was found to be 660 mg/kg; in the series “in vivo [3]” (Sprague-Dawley rats used as test animals (footnote 2)), 670 mg/kg. The compound also gave an NOAEL at 24 h in the series “in vivo [1]” of 100 mg/kg.

The values are drawn from US4061767A, “Cyano acetic acid anilide derivatives, process for their manufacture and compositions containing these compounds” (Hoechst Aktiengesellschaft, priority 1975, dated 1977).
